US20250042853A1, “BICYCLIC COMPOUND AND APPLICATION THEREOF” (BETTA PHARMACEUTICALS CO., LTD, priority 2021, published 2025)

How the values were obtained:
VEGFA = VEGFA ELISA assay (IC50); type: cell-based; conditions: Homo sapiens, 786-0, 786-O cells, 24 h, VEGFA in culture supernatant by ELISA
Description: 786-O cells in the logarithmic growth phase were inoculated into a 96-well plate at a cell concentration of 65,000 cells per ml of culture liquid, 180 μL per well. The compounds were diluted to the corresponding concentrations, and 20 μL of compound solutions of various concentrations were added to the corresponding cell wells, so that the final concentrations of the compounds were 1.5 nM, 4.6 nM, 13.7 nM, 41.2 nM, 123.5 nM, 370.4 nM, 1111.1 nM, 3333.3 nM, and 10000 nM, respectively. After culturing for 24 h, the cell culture supernatant was collected and the VEGFA concentration was determined using an ELISA kit (purchased from Abeam). Finally, the reaction was terminated and the absorbance value of each well was measured at a wavelength of 450 nm using an ELISA reader. The IC50 values were calculated by GraphPadPrism. CellTiter-Glo reagent was used to measure cell viability.

786-O-HIF2α-Luc cells = experiment: Luciferase assay (HIF2α reporter gene cells); type: cell-based; conditions: 18-20 h, luminescence
Description: The luciferase LUC gene was stably transfected into 786-0 cells (purchased from ATCC) using Lipofectamine 3000 transfection reagent (purchased from Invitrogen) to construct HIF2α reporter gene cells (786-O-HIF2α-Luc cells). The experiment was performed when 786-O-HIF2α-Luc cells were in the logarithmic growth phase, the culture medium (RPMI MEDIUM 1640, purchased from Invitrogen) was discarded, and the cells were rinsed three times with PBS; trypsin (TrypLE, purchased from Invitrogen) was added to digest the cells, and the digestion was terminated with culture medium, 10% fetal bovine serum, 1% penicillin, and streptomycin. The cells were collected by centrifugation, and washed twice with PBS to remove phenol red in the culture medium. The cells were resuspended to an appropriate concentration. The cell density and viability were measured, to ensure that the cells with a viability of at least 90% were used in the assay.
The compounds at a gradient concentration were transferred into 384 wells using Echo550 (non-contact acoustic pipetting system, purchased from Labcyte), 25 nL/well. The cells were seeded into 384-well plates, with 4500 cells/well and 25 μL of culture medium, and the final concentrations of the compounds were 10000 nM, 3333 nM, 1111 nM, 370 nM, 123 nM, 41.1 nM, 13.7 nM, 4.6 nM, 1.5 nM, and 0.5 nM, respectively. The cells were cultured for 18-20 h under conditions of 37° C. and 5% CO2. Steady-Glo™ luciferase assay system (purchased from Promega) was added to a 384-well plate, 25 μL/well. Luminescence values were detected using Envision. The inhibition rate % was calculated based on the RLU (Record Luminescence) signal value of each well, and then the IC50 values of the corresponding compounds were calculated by fitting using Graphpad 8.0.
The IC50 data of the exemplary examples are provided in Table 2, where A stands for IC50≤0.1 μM; B stands for 0.1 μM<IC50≤0.5 μM; and C stands for IC50>0.5 μM.

For O=S(=O)(c1cn(-c2ccc(F)c(C(F)F)c2)c2c1[C@H](O)C(F)(F)CC2)C(F)F [Example 6, (S)-1-(3-(difluoromethyl)-4-fluorophenyl)-3-((difluoromethyl)sulfonyl)-5,5-difluoro-4,5,6,7-tetrahydro-1H-indol-4-ol], the IC50 (VEGFA) was 11 nM and the IC50 (786-O-HIF2α-Luc cells) was 38 nM.
With N#Cc1cc(-n2cc(S(=O)(=O)CF)c3c2CCC(F)(F)[C@H]3O)ccc1F [Example 11, (S)-5-(5,5-difluoro-3-((fluoromethyl)sulfonyl)-4-hydroxyl-4,5,6,7-tetrahydro-1H-indol-1-yl)-2-fluorobenzonitrile] the IC50 (VEGFA) was 27 nM and the IC50 (786-O-HIF2α-Luc cells; class symbols) was 100 to 500 nM.
O=S(=O)(c1cn(-c2ccc(F)c(C(F)F)c2)c2c1[C@H](O)C(F)(F)CC2)C(F)(F)F [Example 12, (S)-1-(3-(difluoromethyl)-4-fluorophenyl)-5,5-difluoro-3-((trifluoromethyl)sulfonyl)-4,5,6,7-tetrahydro-1H-indol-4-ol] showed an IC50 (VEGFA) of 10 nM and an IC50 (786-O-HIF2α-Luc cells; class symbols) of no more than 100 nM.
O=S(=O)(CF)c1cn(-c2ccc(F)c(C(F)F)c2)c2c1[C@H](O)C(F)(F)CC2 [Example 14, (S)-1-(3-(difluoromethyl)-4-fluorophenyl)-5,5-difluoro-3-((fluoromethyl)sulfonyl)-4,5,6,7-tetrahydro-1H-indol-4-ol] was tested, and the IC50 (VEGFA) was 40 nM and the IC50 (786-O-HIF2α-Luc cells) was 54 nM.
O=S(=O)(c1cn(-c2ccc(F)c(C(F)(F)F)c2)c2c1[C@H](O)C(F)(F)CC2)C(F)(F)F [Example 23, (S)-5,5-difluoro-1-(4-fluoro-3-(trifluoromethyl)phenyl)-3-((trifluoromethyl)sulfonyl)-4,5,6,7-tetrahydro-1H-indol-4-ol] gave an IC50 (VEGFA) of 11 nM and an IC50 (786-O-HIF2α-Luc cells) of 40 nM.
O=S(=O)(c1cn(-c2ccc(F)c(C(F)F)c2)c2c1[C@H](O)CCC2)C(F)F [Example 32, (R)-1-(3-(difluoromethyl)-4-fluorophenyl)-3-((difluoromethyl)sulfonyl)-4,5,6,7-tetrahydro-1H-indol-4-ol] showed an IC50 (VEGFA) of 62 nM and an IC50 (786-O-HIF2α-Luc cells; class symbols) of 100 to 500 nM.
Molecule N#Cc1ccc(-n2cc(S(=O)(=O)C(F)F)c3c2CCC(F)(F)[C@H]3O)cc1C(F)F [Example 43, (S)-2-(difluoromethyl)-4-(3-((difluoromethyl)sulfonyl)-5,5-difluoro-4-hydroxyl-4,5,6,7-tetrahydro-1H-indol-1-yl)benzonitrile] has an IC50 (VEGFA; class symbols) of no more than 500 nM.
Molecule N#Cc1ccc(-n2cc(S(=O)(=O)CF)c3c2CCC(F)(F)[C@H]3O)cc1C(F)F [Example 44, (S)-4-(5,5-difluoro-3-((fluoromethyl)sulfonyl)-4-hydroxyl-4,5,6,7-tetrahydro-1H-indol-1-yl)-2-(difluoromethyl) benzonitrile] has an IC50 (VEGFA; class symbols) of no more than 500 nM.
In the case of N#Cc1ccc(-n2cc(S(=O)(=O)CF)c3c2CCC(F)(F)[C@H]3O)cc1C#N [Example 45, (S)-4-(5,5-difluoro-3-((fluoromethyl)sulfonyl)-4-hydroxyl-4,5,6,7-tetrahydro-1H-indol-1-yl)phthalonitrile], the IC50 (VEGFA; class symbols) is reported as no more than 500 nM.
For N#Cc1ccc(-n2cc(C(F)(F)C(F)(F)F)c3c2CCC(F)(F)[C@H]3O)cc1C#N [Example 46, (S)-4-(5,5-difluoro-4-hydroxyl-3-(perfluoroethyl)-4,5,6,7-tetrahydro-1H-indol-1-yl)phthalonitrile], the IC50 (VEGFA; class symbols) was no more than 500 nM.
N#CC(F)S(=O)(=O)c1cn(-c2ccc(F)c(C(F)F)c2)c2c1[C@H](O)C(F)(F)CC2 (stereo partly drawn) [Example 47, 2-(((S)-1-(3-(difluoromethyl)-4-fluorophenyl)-5,5-difluoro-4-hydroxyl-4,5,6,7-tetrahydro-1H-indol-3-yl)sulfonyl)-2-fluoroacetonitrile] showed an IC50 (VEGFA) of 8 nM.
CCOC(=O)C(F)(F)c1cn(-c2ccc(F)c(C(F)F)c2)c2c1[C@H](O)C(F)(F)CC2 [Example 48, ethyl (S)-2-(1-(3-(difluoromethyl)-4-fluorophenyl)-5,5-difluoro-4-hydroxyl-4,5,6,7-tetrahydro-1H-indol-3-yl)-2,2-difluoroacetate] was tested, and the IC50 (VEGFA) was 1620 nM.
N#CC(F)(F)c1cn(-c2ccc(F)c(C(F)F)c2)c2c1[C@H](O)C(F)(F)CC2 [Example 49, (S)-2-(1-(3-(difluoromethyl)-4-fluorophenyl)-5,5-difluoro-4-hydroxyl-4,5,6,7-tetrahydro-1H-indol-3-yl)-2,2-difluoroacetonitrile] was tested, and the IC50 (VEGFA) was 99 nM.
O[C@H]1c2c(-c3nccs3)cn(-c3ccc(F)c(C(F)F)c3)c2CCC1(F)F [Example 51, (S)-1-(3-(difluoromethyl)-4-fluorophenyl)-5,5-difluoro-3-(thiazol-2-yl)-4,5,6,7-tetrahydro-1H-indol-4-ol] was tested, and the IC50 (VEGFA) was 1250 nM.
For CC(C#N)S(=O)(=O)c1cn(-c2ccc(F)c(C(F)F)c2)c2c1[C@H](O)C(F)(F)CC2 (stereo partly drawn) [Example 57, 2-(((S)-1-(3-(difluoromethyl)-4-fluorophenyl)-5,5-difluoro-4-hydroxyl-4,5,6,7-tetrahydro-1H-indol-3-yl)sulfonyl) propanenitrile], the IC50 (VEGFA; class symbols) was no more than 500 nM.
For N#CC1(S(=O)(=O)c2cn(-c3ccc(F)c(C(F)F)c3)c3c2[C@H](O)C(F)(F)CC3)CC1 [Example 58, (S)-1-((1-(3-(difluoromethyl)-4-fluorophenyl)-5,5-difluoro-4-hydroxyl-4,5,6,7-tetrahydro-1H-indol-3-yl)sulfonyl)cyclopropane-1-nitrile], the IC50 (VEGFA) was 639 nM.
With O=S(=O)(CF)c1cn(-c2ccc(F)c(C(F)F)c2)c2c1[C@@H](O)C(F)(F)CC2 [Example 61, (R)-1-(3-(difluoromethyl)-4-fluorophenyl)-5,5-difluoro-3-((fluoromethyl)sulfonyl)-4,5,6,7-tetrahydro-1H-indol-4-ol] the IC50 (VEGFA; class symbols) was no more than 500 nM.
Work on NC(=O)c1cn(-c2ccc(F)c(C(F)F)c2)c2c1[C@H](O)C(F)(F)CC2 [Example 62, (S)-1-(3-(difluoromethyl)-4-fluorophenyl)-5,5-difluoro-4-hydroxyl-4,5,6,7-tetrahydro-1H-indole-3-carboxamide] yielded an IC50 (VEGFA; class symbols) of no more than 500 nM.
In the case of O=S(=O)(c1cn(-c2ccc(F)c(C(F)F)c2)c2c1[C@H](O)[C@H](F)CC2)C(F)F [Example 63, (4S,5R)-1-(3-(difluoromethyl)-4-fluorophenyl)-3-((difluoromethyl)sulfonyl)-5-fluoro-4,5,6,7-tetrahydro-1H-indol-4-ol], the IC50 (VEGFA) is reported as 50 nM.
Work on O=S(=O)(c1cn(-c2ccc(F)c(C(F)F)c2)c2c1[C@H](O)[C@@H](F)CC2)C(F)F [Example 64, (4S,5S)-1-(3-(difluoromethyl)-4-fluorophenyl)-3-((difluoromethyl)sulfonyl)-5-fluoro-4,5,6,7-tetrahydro-1H-indol-4-ol] yielded an IC50 (VEGFA) of 33 nM.
N#Cc1ccc(-n2cc(S(=O)(=O)C(F)(F)F)c3c2CCC[C@H]3O)cc1C(F)F [Example 65, (R)-2-(difluoromethyl)-4-(4-hydroxyl-3-((trifluoromethyl)sulfonyl)-4,5,6,7-tetrahydro-1H-indol-1-yl)benzonitrile] showed an IC50 (VEGFA) of 30 nM.
Molecule O[C@H]1c2c(C(F)(F)F)cn(-c3ccc(F)cc3F)c2CCC1(F)F [Example 72, (S)-1-(2,4-difluorophenyl)-5,5-difluoro-3-(trifluoromethyl)-4,5,6,7-tetrahydro-1H-indol-4-ol] has an IC50 (VEGFA; class symbols) of 500 to 1500 nM.
Molecule N#Cc1cc(-n2c(F)c(-c3cccs3)c3c2CCC(F)(F)C3O)ccc1F (centres unmarked) [Example 106, 2-fluoro-5-(2,5,5-trifluoro-4-hydroxyl-3-(thien-2-yl)-4,5,6,7-tetrahydro-1H-indol-1-yl)benzonitrile] has an IC50 (VEGFA) of 15 nM.
